How the values were obtained:
Format in all cases: biochemical
factor VIIa = molecular target: T1, factor VIIa (Homo sapiens, UniProt P08709); test: Fluorogenic enzyme assay, relative hydrolysis rates (Table 8); settings: at 100 hours; 10 nM enzyme, substrate 1 μM
T1 construct: directly measure the enzymatic activity of factor VIIa in the presence and absence of tissue factor and phospholipid
T1 sequence (P08709 213-466 limits assumed): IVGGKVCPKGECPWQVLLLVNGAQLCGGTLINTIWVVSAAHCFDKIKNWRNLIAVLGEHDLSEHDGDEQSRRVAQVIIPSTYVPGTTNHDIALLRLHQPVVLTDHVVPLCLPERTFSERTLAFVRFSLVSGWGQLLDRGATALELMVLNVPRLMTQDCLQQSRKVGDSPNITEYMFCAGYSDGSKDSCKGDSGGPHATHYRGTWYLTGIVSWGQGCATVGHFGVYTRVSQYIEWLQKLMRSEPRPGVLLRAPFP
T1 sequence (P08709 61-212 limits assumed): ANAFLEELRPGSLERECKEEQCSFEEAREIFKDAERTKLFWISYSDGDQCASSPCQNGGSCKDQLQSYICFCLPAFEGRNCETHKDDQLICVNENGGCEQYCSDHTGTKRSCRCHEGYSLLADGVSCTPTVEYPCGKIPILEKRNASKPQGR
Experimental: (§1) Enzyme assays (except factor VIIa assays, see below) were conducted in 20 mM Tris, 150 mM NaCl, pH 7.4 (TBS) at room temperature (22° C.). The final volume for all reaction mixtures was 2.0 ml. Fluorogenic substrates were dissolved in DMSO to a stock concentration of 10 mM. The 10 mM stock solution was diluted in TBS to the final working concentration prior to all assays. Enzyme was added to mixtures containing buffer components and substrate and the initial rate of substrate hydrolysis was measured as the change in fluorescent intensity over time, corresponding to the generation of the particular 6-amino-1-naphthalenesulfonamide fluorophore from the provided substrate. Quantitation of substrate hydrolysis was accomplished by establishing a standard curve from the appropriate fluorescent moiety. Fluorescence was monitored (continuously or discontinuously) using a Perkin Elmer fluorescence spectrophotometer, model MPF-44A, equipped with a standard chart recorder. The fluorophore was detected using monochrometers set at an excitation wavelength of 352 nm and an emission wavelength of 470 nm. Light scattering artifacts were minimized using a 399 nm cut off filter in the emission light beam.
Factor VII assays were conducted in 20 mM HEPES, 150 mM NaCl, 5 mM CaCl2, pH 7.4 (HBS) at 37° C. The final volume for all reactions was 1.6 ml. 6-(Mes-D-Leu-Gly-Arg)amino-1-(N,N-diethyl)naphthalenesulfonamide was dissolved in DMSO to a stock concentration of 10 mM. This 10 mM stock solution of was diluted in HBS to final working concentration prior to all assays. For reactions involving tissue factor (TF) and phospholipid vesicles, recombinant human tissue factor was solubilized in either 0.04% n-dodecyl octaethylene glycol (C12 E8) or 0.8% octyl glucoside. The TF/n-dodecyl octaethylene glycol was then relipidated into PCPS or PC vesicles by a 30 minute incubation step as described by Lawson & Mann, J. Biol. Chem. 266: 11317-11327 (1991). TF/octyl glucoside was relipidated into PC or PCPS vesicles by a thirty minute incubation step followed by exhaustive dialysis. The final concentration of tissue factor used in the studies described here ranged from 2 to 50 nM depending on the nature of the experiment.
Fifteen minutes prior to the start of all reactions factor VIIa was added to the reaction system. This incubation period was followed by the addition of substrate (1 μM to 400 μM) to the mixture to start the reaction. In experiments designed to determine kinetic constants of substrate hydrolysis, 50 nM rVIIa was used when no tissue factor was present in the reaction system, while 0.5 nM rVIIa was used when tissue factor was present in the reaction system. The rate of substrate hydrolysis was measured by change in fluorescence over time, which corresponded with the generation of the 6-amino-1-(N,N-diethyl)naphthalenesulfonamide from the provided substrate. The kinetic constants of 6-(Mes-D-Leu-Gly-Arg)amino-1-(N,N-diethyl)naphthalenesulfonamide hydrolysis as a function of factor VIIa/tissue factor complex assembly are shown in Table 10.

urokinase (u-PA) = urokinase (u-PA) (Homo sapiens, UniProt P00749); test: Fluorogenic enzyme assay (Example 5); settings: 100 nM enzyme, substrate 1 μM; for hydrolysis, u-PA (symbol d): at 100 hours
Experimental: as §1
(§2) The kinetic constants of substrate hydrolysis were determined using the non-linear least squares regression analysis program ENZFITTER (Cambridge, UK). This program was used to iteratively fit initial rates of substrate hydrolysis to the Michaelis-Menten equation and the kinetic constants of substrate hydrolysis (Km) and (kcat) were calculated.

[1] = molecular target: tissue plasminogen activator (t-PA) (Homo sapiens, UniProt P00750); test: Fluorogenic enzyme assay (Example 5); settings: 100 nM enzyme, substrate 1 μM; for hydrolysis, t-PA (symbol d): at 100 hours
Experimental: as §1, §2

plasmin (Plm) = plasmin (Plm) (Homo sapiens, UniProt P00747); test: Fluorogenic enzyme assay (Example 5); settings: substrate 1 μM
Experimental: as §1, §2

factor IXa = factor IXa (Homo sapiens, UniProt P00740); test: Fluorogenic enzyme assay (Example 5); design: key to Kinetic constants, IXa (symbol b): slow substrate hydrolysis, no kinetic constants calculated; settings: for hydrolysis, IXa (symbol d): at 100 hours
Experimental: as §1, §2

thrombin (IIa) = molecular target: T2, thrombin (IIa) (Homo sapiens, UniProt P00734); test: Fluorogenic enzyme assay (Example 5); design: key to Kinetic constants, IIa (symbol b): slow substrate hydrolysis, no kinetic constants calculated; settings: for TIME TO 10% HYDROLYSIS (HOURS), IIa: substrate 1 μM
T2 construct: 0.5 nM human thrombin (IIa)
Experimental: as §1, §2

factor Xa = factor Xa (Homo sapiens, UniProt P00742); test: Fluorogenic enzyme assay (Example 5); design: key to Kinetic constants, Xa (symbol b): slow substrate hydrolysis, no kinetic constants calculated; settings: for hydrolysis, Xa (symbol d): at 100 hours; for hydrolysis, Xa (symbol d) / TIME TO 10% HYDROLYSIS (HOURS), Xa: 10 nM enzyme, substrate 1 μM
Experimental: as §1, §2

[2] = molecular target: activated protein C (APC) (Homo sapiens, UniProt P04070); test: Fluorogenic enzyme assay (Example 5); design: key to Kinetic constants, APC (symbol b): slow substrate hydrolysis, no kinetic constants calculated; settings: for TIME TO 10% HYDROLYSIS (HOURS), APC: substrate 1 μM
Experimental: as §1, §2

Chain of factor IXa (P00740 227-461 limits assumed): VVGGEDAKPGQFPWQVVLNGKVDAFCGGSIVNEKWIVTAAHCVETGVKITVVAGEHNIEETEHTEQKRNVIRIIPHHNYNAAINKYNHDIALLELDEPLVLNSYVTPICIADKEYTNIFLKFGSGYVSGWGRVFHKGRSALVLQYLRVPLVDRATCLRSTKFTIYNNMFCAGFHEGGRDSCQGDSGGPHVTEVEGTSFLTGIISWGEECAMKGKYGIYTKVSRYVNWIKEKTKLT
Chain of factor IXa (P00740 47-191 limits assumed): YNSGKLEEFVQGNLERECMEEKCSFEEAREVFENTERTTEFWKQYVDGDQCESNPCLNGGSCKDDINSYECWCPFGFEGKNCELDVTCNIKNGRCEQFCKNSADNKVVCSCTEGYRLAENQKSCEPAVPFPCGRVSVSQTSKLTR
Chain of tissue plasminogen activator (t-PA) (P00750 36-562, species assumed): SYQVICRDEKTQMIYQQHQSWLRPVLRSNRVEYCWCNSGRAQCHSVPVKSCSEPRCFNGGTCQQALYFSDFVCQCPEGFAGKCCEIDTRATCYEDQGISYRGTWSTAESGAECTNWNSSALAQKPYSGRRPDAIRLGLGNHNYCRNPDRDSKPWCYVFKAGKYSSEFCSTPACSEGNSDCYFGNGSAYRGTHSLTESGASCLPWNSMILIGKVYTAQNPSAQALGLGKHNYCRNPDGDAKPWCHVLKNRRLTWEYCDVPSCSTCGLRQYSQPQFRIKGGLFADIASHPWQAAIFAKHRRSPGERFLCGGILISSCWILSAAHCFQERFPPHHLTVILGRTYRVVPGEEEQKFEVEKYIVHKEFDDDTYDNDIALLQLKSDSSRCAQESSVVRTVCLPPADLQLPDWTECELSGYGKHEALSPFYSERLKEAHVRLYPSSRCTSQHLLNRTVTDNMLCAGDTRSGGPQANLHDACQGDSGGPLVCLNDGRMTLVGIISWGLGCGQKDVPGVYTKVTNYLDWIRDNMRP
Chain of activated protein C (APC) (P04070 212-461 limits assumed): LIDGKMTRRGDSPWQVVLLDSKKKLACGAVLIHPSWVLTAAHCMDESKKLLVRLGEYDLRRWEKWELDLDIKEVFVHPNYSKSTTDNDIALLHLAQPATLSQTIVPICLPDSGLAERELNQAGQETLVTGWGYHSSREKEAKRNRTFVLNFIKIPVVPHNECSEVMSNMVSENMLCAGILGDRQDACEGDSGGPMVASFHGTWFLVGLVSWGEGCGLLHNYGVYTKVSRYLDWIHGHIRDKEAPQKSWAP
Chain of activated protein C (APC) (P04070 43-197 limits assumed): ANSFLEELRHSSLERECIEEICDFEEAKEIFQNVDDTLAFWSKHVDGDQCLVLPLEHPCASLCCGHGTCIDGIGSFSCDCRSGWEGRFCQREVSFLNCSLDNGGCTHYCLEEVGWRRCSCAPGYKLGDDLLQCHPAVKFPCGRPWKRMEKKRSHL
Chain of plasmin (Plm) (P00747 581-810 limits assumed, species assumed): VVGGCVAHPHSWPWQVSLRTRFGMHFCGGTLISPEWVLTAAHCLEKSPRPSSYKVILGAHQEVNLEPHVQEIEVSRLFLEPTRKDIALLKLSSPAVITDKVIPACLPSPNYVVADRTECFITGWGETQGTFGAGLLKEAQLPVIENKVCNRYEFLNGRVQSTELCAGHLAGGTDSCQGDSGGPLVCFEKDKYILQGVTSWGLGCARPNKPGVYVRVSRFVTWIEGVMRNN
Chain of plasmin (Plm) (P00747 97-580 limits assumed, species assumed): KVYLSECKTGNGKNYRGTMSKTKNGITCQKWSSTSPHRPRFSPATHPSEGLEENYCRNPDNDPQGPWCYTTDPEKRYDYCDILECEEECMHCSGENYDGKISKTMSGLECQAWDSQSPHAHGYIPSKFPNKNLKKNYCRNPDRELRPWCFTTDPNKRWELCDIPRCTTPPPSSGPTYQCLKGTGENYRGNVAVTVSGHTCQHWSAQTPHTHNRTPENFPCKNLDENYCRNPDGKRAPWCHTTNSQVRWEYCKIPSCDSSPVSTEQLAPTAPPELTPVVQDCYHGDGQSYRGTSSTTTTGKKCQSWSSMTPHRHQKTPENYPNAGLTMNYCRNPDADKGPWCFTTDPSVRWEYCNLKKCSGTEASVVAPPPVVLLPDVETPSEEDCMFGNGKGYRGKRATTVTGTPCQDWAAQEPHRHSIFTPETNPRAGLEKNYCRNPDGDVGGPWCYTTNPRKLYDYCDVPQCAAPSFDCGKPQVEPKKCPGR
Chain of factor Xa (P00742 235-488 limits assumed): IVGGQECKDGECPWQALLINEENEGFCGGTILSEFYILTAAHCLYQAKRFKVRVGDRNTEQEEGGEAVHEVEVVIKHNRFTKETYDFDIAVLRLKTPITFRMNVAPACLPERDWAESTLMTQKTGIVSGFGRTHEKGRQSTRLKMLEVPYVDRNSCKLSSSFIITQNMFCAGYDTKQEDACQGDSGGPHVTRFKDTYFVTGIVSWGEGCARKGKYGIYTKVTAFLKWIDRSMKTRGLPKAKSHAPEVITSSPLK
Chain of factor Xa (P00742 41-179 limits assumed): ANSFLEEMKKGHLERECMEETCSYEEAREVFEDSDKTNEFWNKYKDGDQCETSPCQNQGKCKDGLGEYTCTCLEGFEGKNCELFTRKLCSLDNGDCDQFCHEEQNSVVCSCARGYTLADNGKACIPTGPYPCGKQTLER

Row | SMILES | hydrolysis, VIIa (symbol d) (factor VIIa) | hydrolysis, u-PA (symbol d) (urokinase (u-PA)) | hydrolysis, t-PA (symbol d) [1] | TIME TO 10% HYDROLYSIS (HOURS), Plm (plasmin (Plm); 10 nM enzyme) | Kinetic constants, IXa (symbol b) (factor IXa; Table 9) | hydrolysis, IXa (symbol d) (factor IXa; 100 nM enzyme, substrate 1 μM) | TIME TO 10% HYDROLYSIS (HOURS), IIa (thrombin (IIa); 10 nM enzyme) | hydrolysis, Xa (symbol d) (factor Xa) | TIME TO 10% HYDROLYSIS (HOURS), APC ([2]; 10 nM enzyme) | Km ([2]; Table 9) | kcat /Km, APC ([2]; Table 9) | kcat, APC ([2]; Table 9) | TIME TO 10% HYDROLYSIS (HOURS), u-PA (urokinase (u-PA)) | TIME TO 10% HYDROLYSIS (HOURS), t-PA [1] | Km (thrombin (IIa); Table 9) | kcat, IIa (thrombin (IIa); Table 9) | TIME TO 10% HYDROLYSIS (HOURS), Xa (factor Xa) | Km (factor Xa; Table 9) | kcat /Km, Xa (factor Xa; Table 9) | kcat, Xa (factor Xa; Table 9) | other results
1 | N=C(N)NCCC[C@H](NC(=O)CNC(=O)CNC(=O)OCc1ccccc1)C(=O)N[C@@H](CCCNC(=N)N)C(=O)Nc1ccc2c(S(=O)(=O)NC3CCCCC3)cccc2c1 [ZGGRR-ANSNH(cyclo-C6 H11)] | d (hydrolysis at 100 hours was less than 10%.) | d (hydrolysis at 100 hours was less than 10%.) | d (hydrolysis at 100 hours was less than 10%.) | 47 h | b | d (hydrolysis at 100 hours was less than 10%.) | 93 h | d (hydrolysis at 100 hours was less than 10%.) | 0.6 h | 320 µM | 19300 M⁻¹ s⁻¹ | 6.2 s⁻¹ |  |  |  |  |  |  |  |  | Kinetic constants, IIa (symbol b) (thrombin (IIa); Table 9): b; Kinetic constants, Xa (symbol b) (factor Xa; Table 9): b
2 | CC(C)C[C@@H](NC(=O)OCc1ccccc1)C(=O)N1CCC[C@H]1C(=O)N[C@@H](CCCNC(=N)N)C(=O)Nc1ccc2c(S(=O)(=O)N3CCCCC3)cccc2c1 [ZD-LPR-ANSN(CH2)5] | d (hydrolysis at 100 hours was less than 10%.) |  |  | 0.08 h |  |  |  |  | 0.5 h | 246 µM | 28900 M⁻¹ s⁻¹ | 7.1 s⁻¹ | 1 h | 1 h | 4.2 µM | 16.1 s⁻¹ | 0.02 h | 26.3 µM | 133000 M⁻¹ s⁻¹ | 3.5 s⁻¹ | TIME TO 10% HYDROLYSIS (HOURS), IXa (factor IXa; 100 nM enzyme, substrate 1 μM): 7 h; Km (factor IXa; Table 9): 141 µM; kcat, IXa (factor IXa; Table 9): 0.39 s⁻¹; kcat/Km, IXa (factor IXa; Table 9): 2750 M⁻¹ s⁻¹; TIME TO 10% HYDROLYSIS (HOURS), IIa (thrombin (IIa); 1 nM enzyme (footnote c)): 0.01 h
3 | CCCNS(=O)(=O)c1cccc2cc(NC(=O)[C@H](CCCNC(=N)N)NC(=O)[C@H](Cc3ccccc3)NC(=O)[C@@H]3CCCN3C(=O)OC(C)(C)C)ccc12 [BocPFR-ANSNHC3 H7] | d (hydrolysis at 100 hours was less than 10%.) |  |  | 22 h | b | d (hydrolysis at 100 hours was less than 10%.) | 4 h |  | 3 h |  |  |  | 5 h | 4 h | 44.4 µM | 0.04 s⁻¹ | 9 h | 230 µM | 260 M⁻¹ s⁻¹ | 0.06 s⁻¹ | kcat /Km, IIa (thrombin (IIa); Table 9): 900 M⁻¹ s⁻¹; Kinetic constants, APC (symbol b) ([2]; Table 9): b
4 | CN(C)S(=O)(=O)c1cccc2cc(NC(=O)[C@H](CCCNC(=N)N)NC(=O)[C@@H](N)CCCCNC(=O)OCc3ccccc3)ccc12.Cl.Cl [N^ω -AZ)KJR-ANSN(CH3)2] | d (hydrolysis at 100 hours was less than 10%.) | d (hydrolysis at 100 hours was less than 10%.) | d (hydrolysis at 100 hours was less than 10%.) |  |  | d (hydrolysis at 100 hours was less than 10%.) | 26 h | d (hydrolysis at 100 hours was less than 10%.) |  |  |  |  |  |  |  |  |  |  |  |  | TIME TO 10% HYDROLYSIS (HOURS), Plm (plasmin (Plm); 100 nM enzyme (footnote b)): 1.5 h; TIME TO 10% HYDROLYSIS (HOURS), APC ([2]; 100 nM enzyme (footnote b)): 5.5 h

Reference: US5399487A, “6-peptidylamino-1-naphthalenesulfonamides useful as fluorogenic proteolytic enzyme substrates” (Haematologic Technologies, Inc., priority 1993, dated 1995)
